These results are taken from patent US20220371986A1, “METHOD TO GENERATE BIOCHEMICALLY REACTIVE AMINO ACIDS” (The Regents of the University of California, priority 2019, published 2022).

Holding throughout (assay type): cell-based
In data set [1] the test system is HeLa-EGFP-182TAG reporter cells. Put plainly: FACS analysis of Uaa incorporation into HeLa-EGFP-182TAG reporter cells. To be noted: flow cytometry; positive control AzF with plasmid pIre-Azi3. The procedure: FSY incorporation into proteins in mammalian cells was tested. HeLa-EGFP-182TAG reporter cells were transfected with plasmid pMP-FSYRS-3×tRNA, which expresses FSYRS and tRNA^Pyl genes. Wang et al, Nat. Neurosci., 10:1063-1072 (2007). Suppression of the 182TAG codon would produce full-length EGFP rendering cells fluorescent. After transfection, cells were incubated with FSY of various concentrations at 37° C. for 24 or 48 h followed by flow cytometry. Strong EGFP fluorescence was measured from cells only when FSY was added. The fluorescence intensity increased with FSY concentration and incubation time. As a positive control, p-azido-L-phenylalanine (AzF) was incorporated into reporter cells in parallel using plasmid pIre-Azi3, which is the most efficient Uaa incorporation system in mammalian cells in our hands. […] No fluorescence signal was detected when FSY was not added.
FACS analysis of Uaa incorporation into HeLa-GFP-182TAG reporter cells: One day before transfection, 4.5×10^4 HeLa-EGFP-182TAG reporter cells (Wang et al, Nat. Neurosci., 10:1063-1072 (2007)) were seeded in a Greiner bio-one 24 well-cell culture dish containing 500 μL of DMEM media with 10% FBS, and incubated at 37° C. in a CO2 incubator. […] The cells were resuspended in 300 μL of FACS buffer (1×PBS, 2% FBS, 1 mM EDTA, 0.1% sodium azide, 0.28 μM DAPI) and analyzed by BD LSRFortessa™ cell analyzer.

Another data set relates to E. coli. Put plainly: E. coli growth in presence of FSY. To be noted: 1 mM FSY in growth media.
A further data set concerns HeLa cells. The data set can be described thus: Toxicity and cell morphology of FSY in HeLa cells.
The test system of a further data set is 293T cells. Put plainly: Toxicity of FSY to 293T cells.

For the compound `N[C@@H](Cc1ccc(OS(=O)(=O)F)cc1)C(=O)O` [FSY, fluorosulfate-L-tyrosine], the “Uaa incorporation (EGFP fluorescence) relative to the AzF level” value in data set [1] turned out to be 76%. Moreover, the “cytotoxicity (E. coli growth)” value in the data set with E. coli is reported as “no obvious cytotoxicity”. In addition, in the data set on HeLa cells (FSY incubation 24 or 48 h), the “toxicity to HeLa cells” value is listed as “no obvious toxicity”. Moreover, in the data set on HeLa cells (HeLa-EGFP-182TAG reporter cells in the presence of FSY), the “cell morphology (fluorescence confocal microscopy)” value is recorded as “cell morphology remained normal”. In the data set with 293T cells, the “toxicity to 293T cells” value is reported as “no obvious toxicity”.
